Data on 14 compounds can be found in patent US11434220B2, “Use of physiological cooling active ingredients, and compositions comprising such active ingredients” (BASF SE, priority 2017, dated 2022).

The structures appear in SMILES notation.

For one test, the target named is T1, human TRPM8 receptor (Homo sapiens, UniProt Q7Z2W7).
T1 construct: expressed in transfected cells
Briefly: Assay for TRPM8 modulators: Ca2+ fluorescence (Fluo-4) in HEK293-TRPM8 test cells. The class given is cell-based. To be noted: HEK293 cells stably transfected with human TRPM8, agonism, triplicates, 0.1-200 μM; read-out: Activity In vitro assay (EC50). The text has this:
The test cell system produced, with human TRPM8 DNA, was a stably transfected HEK293 cell line. Preference is given here to HEK293 which, via the plasmid introduced, offers the option of induction of TRPM8 expression by means of tetracycline.
The agonism or antagonism of the receptor can be quantified by means of a Ca^2+-sensitive dye (e.g. FURA, Fluo-4 etc.). Agonists on their own result in an increase in the Ca^2+ signal; antagonists in the presence of menthol, for example, result in a reduction in the Ca^2+ signal (in each case detected by means of the Fluo-4 dye which is caused to have different fluorescence properties by Ca^2+).
First of all, in a manner known per se, a fresh culture of transformed HEK cells is produced in cell culture bottles. The HEK293-TRPM8 test cells are detached from the cell culture bottles by means of trypsin and 40 000 cells/well are sown with 100 μl of medium in 96-hole plates (Greiner #655948 poly-D-lysine-coated). For induction of the TRPM8 receptor, tetracycline is added to the growth medium (DMEM/HG, 10% FCS tetracycline-free, 4 mM L-glutamine, 15 μg/mL blasticidin, 100 μg/mL hygromycin B, 1 μg/mL tetracycline). The next day, the cells are laden with Fluo-4AM dye and the test is conducted.
The test substances are used in the assay in triplicates in concentrations of 0.1-200 μM. Normally, the compounds are kept in DMSO solutions and diluted down for the assay to a maximum DMSO concentration of 2%.

Test [1] concerns oral cavity of trained panelists. Briefly: Time-intensity profile of cooling after 40 s mouth rinse with sample solution. To be noted: for Cooling intensity: 40 s mouth rinse; for Onset of cooling activity: time-intensity profile, with respect to WS3. The test is classed as in vivo, human. Here is the method: To establish a time-intensity profile, the oral cavity of trained panelists (n=8 to 11) was rinsed for 40 seconds with a mouthful of a sample solution (2 ppm of FEMA 4809 or 50 ppm of FEMA 4496 or 50 ppm of 1) to 5)). Subsequently, the cooling intensity perceived was assessed at defined time intervals using a scale.

Another test concerns trained panelists. Description: Sensory assessment: cooling intensity of inventive amides in 5% sugar solution compared to FEMA 4809. The test is classed as in vivo, human. The conditions noted are these: scale 1 (very weak) to 9 (very strong), n=10 to 11. Here is the method: […] What were assessed here were initial cooling intensity, overall cooling intensity and long-lasting action on a scale from 1 (very weak) to 9 (very strong).

The mark [2] stands for this setting: time 0 sec; 2 ppm FEMA 4809, 50 ppm FEMA 4496, 50 ppm 1) to 5).
Where [3] appears, read: time 40 sec; 2 ppm FEMA 4809, 50 ppm FEMA 4496, 50 ppm 1) to 5).
[4] abbreviates: time 70 sec; 2 ppm FEMA 4809, 50 ppm FEMA 4496, 50 ppm 1) to 5).
[5] abbreviates: time 100 sec; 2 ppm FEMA 4809, 50 ppm FEMA 4496, 50 ppm 1) to 5).
[6] abbreviates: time 130 sec; 2 ppm FEMA 4809, 50 ppm FEMA 4496, 50 ppm 1) to 5).
Where [7] appears, read: time 160 sec; 2 ppm FEMA 4809, 50 ppm FEMA 4496, 50 ppm 1) to 5).
Setting [8] is: time 190 sec; 2 ppm FEMA 4809, 50 ppm FEMA 4496, 50 ppm 1) to 5).
The mark [9] stands for this setting: time 220 sec; 2 ppm FEMA 4809, 50 ppm FEMA 4496, 50 ppm 1) to 5).
[10] abbreviates: time 250 sec; 2 ppm FEMA 4809, 50 ppm FEMA 4496, 50 ppm 1) to 5).
[11] abbreviates: time 280 sec; 2 ppm FEMA 4809, 50 ppm FEMA 4496, 50 ppm 1) to 5).
Where [12] appears, read: time 310 sec; 2 ppm FEMA 4809, 50 ppm FEMA 4496, 50 ppm 1) to 5).
The mark [13] stands for this setting: time 340 sec; 2 ppm FEMA 4809, 50 ppm FEMA 4496, 50 ppm 1) to 5).
The mark [14] stands for this setting: time 640 sec; 2 ppm FEMA 4809, 50 ppm FEMA 4496, 50 ppm 1) to 5).
Where [15] appears, read: time 940 sec; 2 ppm FEMA 4809, 50 ppm FEMA 4496, 50 ppm 1) to 5).
Setting [16] is: time 1240 sec; 2 ppm FEMA 4809, 50 ppm FEMA 4496, 50 ppm 1) to 5).

T1 sequence (Q7Z2W7 whole entry): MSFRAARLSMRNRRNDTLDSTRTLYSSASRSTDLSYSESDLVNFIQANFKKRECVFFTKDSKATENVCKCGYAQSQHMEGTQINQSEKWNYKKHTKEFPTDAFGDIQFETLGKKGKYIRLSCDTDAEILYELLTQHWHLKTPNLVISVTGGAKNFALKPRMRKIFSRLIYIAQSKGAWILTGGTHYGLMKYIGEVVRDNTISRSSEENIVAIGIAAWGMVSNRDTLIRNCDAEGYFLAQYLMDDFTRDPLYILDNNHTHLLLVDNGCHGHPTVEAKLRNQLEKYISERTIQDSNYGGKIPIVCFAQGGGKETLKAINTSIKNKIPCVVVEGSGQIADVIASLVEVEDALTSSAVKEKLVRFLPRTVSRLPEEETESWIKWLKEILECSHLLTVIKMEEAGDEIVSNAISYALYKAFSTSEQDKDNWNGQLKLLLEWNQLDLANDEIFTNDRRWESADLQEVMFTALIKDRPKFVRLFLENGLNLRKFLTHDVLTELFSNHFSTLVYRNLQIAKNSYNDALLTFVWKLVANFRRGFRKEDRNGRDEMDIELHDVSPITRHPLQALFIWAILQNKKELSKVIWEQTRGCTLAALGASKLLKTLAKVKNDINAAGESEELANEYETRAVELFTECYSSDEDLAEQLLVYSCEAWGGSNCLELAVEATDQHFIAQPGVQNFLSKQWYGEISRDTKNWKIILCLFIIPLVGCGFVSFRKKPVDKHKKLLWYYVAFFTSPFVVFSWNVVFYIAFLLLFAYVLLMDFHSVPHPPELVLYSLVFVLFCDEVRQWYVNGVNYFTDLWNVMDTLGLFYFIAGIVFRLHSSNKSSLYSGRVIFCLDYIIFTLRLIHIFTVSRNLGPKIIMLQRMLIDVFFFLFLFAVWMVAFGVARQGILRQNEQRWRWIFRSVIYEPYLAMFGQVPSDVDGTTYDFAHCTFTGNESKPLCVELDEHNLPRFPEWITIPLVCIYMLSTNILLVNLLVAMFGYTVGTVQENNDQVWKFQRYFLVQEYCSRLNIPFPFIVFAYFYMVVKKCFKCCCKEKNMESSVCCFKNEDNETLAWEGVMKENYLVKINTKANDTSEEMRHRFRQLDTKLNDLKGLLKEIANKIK

For `COc1ccc(OCC(=O)N(c2cc[nH]n2)C2CCSC2)cc1` (stereo not drawn) [2-(4-methoxyphenoxy)-N-(1H-pyrazol-3-yl)-N-tetrahydrothiophen-3-yl-acetamide], the EC50 (as a rule, the concentration needed to bring the measured effect to its halfway point) at human TRPM8 receptor was found to be 10 µM.

For the compound `COc1ccc(OCC(=O)N(CCSC)c2ccccc2)cc1` [2-(4-methoxyphenoxy)-N-(2-methylsulfanylethyl)-N-phenyl-acetamide], the EC50 at human TRPM8 receptor came to 30 µM.

For the compound `Cc1ccc(OCC(=O)N(CC2CCCO2)c2cc[nH]n2)cc1` (stereo not drawn) [2-(4-methylphenoxy)-N-(1H-pyrazol-3-yl)-N-(tetrahydrofuran-2-ylmethyl)acetamide], the EC50 at human TRPM8 receptor turned out to be 10 µM.

On to `Cc1ccc(OCC(=O)N(c2ccccc2)C2CCOC2)cc1` (stereo not drawn) [2-(4-methylphenoxy)-N-phenyl-N-tetrahydrofuran-3-yl-acetamide], for which the EC50 at human TRPM8 receptor amounted to 25 µM.

For `Cc1ccc(/C=C/C(=O)N(c2ccccn2)C2CCSC2)cc1` (stereo not drawn) [3), (E)-3-(p-tolyl)-N-(2-pyridyl)-N-tetrahydrothiophen-3-ylprop-2-enamide], the Cooling intensity in test [1] (setting [2]) was found to be 0.0; in test [1] (setting [3]), 4.0; in test [1] (setting [4]), 4.0; in test [1] (setting [5]), 4.0; in test [1] (setting [6]) it was 3.9; in test [1] (setting [7]), 3.7. Further, the Cooling intensity in test [1] (setting [8]) is recorded as 3.7; in test [1] (setting [9]), 3.5; in test [1] (setting [10]), 3.4; in test [1] (setting [11]), 3.3; in test [1] (setting [12]) it was 3.2; in test [1] (setting [13]), 3.2. For the same compound, the Cooling intensity in test [1] (setting [14]) is recorded as 2.2; in test [1] (setting [15]), 1.3; in test [1] (setting [16]), 0.7.

`CSCCN(C(=O)/C=C/c1ccc2c(c1)OCO2)c1ccccn1` [5), (E)-3-(1,3-benzodioxol-5-yl)-N-(2-methylsulfanylethyl)-N-(2-pyridyl)prop-2-enamide]: the Cooling intensity in test [1] (setting [2]) stood at 0.0; in test [1] (setting [3]) it was 5.7; in test [1] (setting [4]), 6.2; in test [1] (setting [5]), 6.0; in test [1] (setting [6]), 5.6; in test [1] (setting [7]), 5.6. In addition, the Cooling intensity in test [1] (setting [8]) worked out at 5.2; in test [1] (setting [9]), 5.0; in test [1] (setting [10]), 4.9; in test [1] (setting [11]), 4.6; in test [1] (setting [12]), 4.5; in test [1] (setting [13]), 4.3. Moreover, the Cooling intensity came out at 3.1 in test [1] (setting [14]), 1.9 in test [1] (setting [15]) and 1.1 in test [1] (setting [16]).

Turning to `CSCCN(C(=O)/C=C/c1ccc2c(c1)OCO2)c1cc[nH]n1` [(E)-3-(1,3-benzodioxol-5-yl)-N-(2-methylsulfanylethyl)-N-(1H-pyrazol-3-yl)prop-2-enamide], in the test on trained panelists (5 ppm in 5% sugar solution), the Initial cooling effect amounted to 3.1, the Long-lasting action amounted to 4.6 and the Overall cooling intensity came to 4.8. In the test on trained panelists (20 ppm in 5% sugar solution), this compound registered an Initial cooling effect of 3.7, a Long-lasting action of 6.6 and an Overall cooling intensity of 6.6.

In the test with trained panelists (2 ppm in 5% sugar solution), `CSCCN(C(=O)/C=C/c1ccc2c(c1)OCO2)c1ccccn1` [(E)-3-(1,3-benzodioxol-5-yl)-N-(2-methylsulfanylethyl)-N-(2-pyridyl)prop-2-enamide] registered an Initial cooling effect of 3.4, a Long-lasting action of 4.3 and an Overall cooling intensity of 4.6. Moreover, in the test with trained panelists (20 ppm in 5% sugar solution), the Initial cooling effect is given as 6.2, the Long-lasting action stood at 7.5 and the Overall cooling intensity is 7.8.

In the test on trained panelists (20 ppm in 5% sugar solution), `CSCCN(C(=O)/C=C/c1ccc2c(c1)OCO2)c1ccccc1` [(E)-3-(1,3-benzodioxol-5-yl)-N-(2-methylsulfanylethyl)-N-phenyl-prop-2-enamide] yielded an Initial cooling effect of 2.7, a Long-lasting action of 4.7 and an Overall cooling intensity of 4.7.

For `CSCCN(C(=O)/C=C/c1ccc(C)cc1)c1ccccn1` [(E)-N-(2-methylsulfanylethyl)-3-(p-tolyl)-N-(2-pyridyl)prop-2-enamide], in the test on trained panelists (20 ppm in 5% sugar solution), the Initial cooling effect was 4, the Long-lasting action was 5.3 and the Overall cooling intensity is given as 5.7.

For the compound `Cc1ccc(/C=C/C(=O)N(c2ccccc2)C2CCOC2)cc1` (stereo not drawn) [(E)-N-phenyl-3-(p-tolyl)-N-tetrahydrofuran-3-ylprop-2-enamide], in the test on trained panelists (20 ppm in 5% sugar solution), the Initial cooling effect was determined as 4.3, the Long-lasting action amounted to 6.1 and the Overall cooling intensity amounted to 5.7.

In the case of `CC1CCC(C(C)C)C(C(=O)Nc2ccc(CC#N)cc2)C1` (stereo not drawn) [FEMA 4496], the Cooling intensity in test [1] (setting [2]) was determined as 0; in test [1] (setting [3]), 1.9; in test [1] (setting [4]), 2.3; in test [1] (setting [5]) it was 2.4; in test [1] (setting [6]), 2.3; in test [1] (setting [7]), 2.3. Also, the Cooling intensity in test [1] (setting [8]) amounted to 2.3; in test [1] (setting [9]), 2.2; in test [1] (setting [10]), 2.2; in test [1] (setting [11]), 2.2; in test [1] (setting [12]), 2.1; in test [1] (setting [13]), 2.1. In addition, the values for the Cooling intensity in test [1] (setting [14]), in test [1] (setting [15]) and in test [1] (setting [16]) were 2.0, 1.5 and 1.2, respectively. In addition, the “Onset of cooling activity” value in test [1] is given as “distinctly retarded onset of the cooling action”.

Turning to `Cc1ccc(OCC(=O)N(Cc2cccs2)c2ccn[nH]2)cc1` [FEMA 4809], the Cooling intensity came out at 0 in test [1] (setting [2]); 2.7 in test [1] (setting [3]); 2.8 in test [1] (setting [4]); 2.5 in test [1] (setting [5]); 2.6 in test [1] (setting [6]); 2.6 in test [1] (setting [7]). The Cooling intensity is listed as 2.7 in test [1] (setting [8]); 2.8 in test [1] (setting [9]); 2.7 in test [1] (setting [10]); 2.8 in test [1] (setting [11]); 2.9 in test [1] (setting [12]); 2.8 in test [1] (setting [13]). Further, the Cooling intensity is given as 2.6 in test [1] (setting [14]), 2.6 in test [1] (setting [15]) and 2.1 in test [1] (setting [16]). In addition, the “Onset of cooling activity” value in test [1] is “distinctly retarded onset of the cooling action”. Moreover, the Initial cooling effect with trained panelists (2 ppm in 5% sugar solution) worked out at 3.9. Also, in the test on trained panelists (2 ppm in 5% sugar solution), the Long-lasting action is listed as 7.5. For the same compound, the Overall cooling intensity with trained panelists (2 ppm in 5% sugar solution) amounted to 7.3.

`CCNC(=O)C1CC(C)CCC1C(C)C` (stereo not drawn) [WS3, N-ethylmenthane-3-carboxamide]: the Cooling intensity came out at 0 in test [1] (setting [2]); 4.3 in test [1] (setting [3]); 4.3 in test [1] (setting [4]); 4.1 in test [1] (setting [5]); 3.7 in test [1] (setting [6]); 3.4 in test [1] (setting [7]). Besides, the Cooling intensity in test [1] (setting [8]) came out at 3.1; in test [1] (setting [9]), 2.9; in test [1] (setting [10]) it was 2.8; in test [1] (setting [11]), 2.4; in test [1] (setting [12]), 2.3; in test [1] (setting [13]), 2.1. Further, the Cooling intensity in test [1] (setting [14]) came out at 1.2; in test [1] (setting [15]), 0.5; in test [1] (setting [16]) it was 0.3.
